# Laboratory results as given in PMC7762786, “The discovery of novel antitrypanosomal 4-phenyl-6-(pyridin-3-yl)pyrimidines” (European Journal of Medicinal Chemistry, 2021).
# What was measured:
# CYP2C9 = target: T1, CYP2C9 (Homo sapiens, UniProt P11712); assay: Cytochrome P450 inhibition assay (P450-Glo); type: in vitro ADME; conditions: 10 μM, result in words
# T1 construct: purchased Corning; host or cells: baculovirus infected insect cells (BTI-TN-5B1-4)
# Method: (§1) Cytotoxicity was also determined against 786-O and A549 cells.
# (§2) Experiments for determining pre-clinical in vitro ADME-Tox activities were performed as described by Moraes et al. and also described in the following sections 4.3.2.1 to 4.3.2.4.
# (§3) The luminescence based P450-Glo™ (Promega Corp.) assay was used in 384-well assay format.
# (§4) The cytochrome P450 (CYP) panel included microsomal preparations of cytochromes P450 1A2, 2C9, 2C19, 2D6, and 3A4 (Corning) from baculovirus infected insect cells (BTI-TN-5B1−4) which express cytochromes P450 and cytochrome c reductase (and cytochrome b5 for 3A4). Compounds were added (100 nL/well in 1% DMSO v/v) using the Echo 550® Liquid Handler followed by addition of 5 μL/well of CYP450/substrate mixture. Following incubation for 30 min at 37 °C, the reaction was initiated by the addition of 5 μL/well of the NADPH regeneration mixture. By the end of a further 30 min incubation (37 °C), the CYP450 reaction was stopped and the luciferase reaction was initiated by the addition of 10 μL/well of the luciferin detection reagent, followed by an additional 30 min of incubation at 37 °C. The luminescence signal was detected using an Infinite® M1000 PRO plate reader. […] The raw data were normalised relative to the positive and negative controls yielding the % inhibition for each compound.
# CYP2D6 = target: T2, CYP2D6 (Homo sapiens, UniProt P10635); assay: Cytochrome P450 inhibition assay (P450-Glo); type: in vitro ADME; conditions: 10 μM, result in words
# T2 construct: purchased Corning; host or cells: baculovirus infected insect cells (BTI-TN-5B1-4)
# T2 sequence (P10635 whole entry): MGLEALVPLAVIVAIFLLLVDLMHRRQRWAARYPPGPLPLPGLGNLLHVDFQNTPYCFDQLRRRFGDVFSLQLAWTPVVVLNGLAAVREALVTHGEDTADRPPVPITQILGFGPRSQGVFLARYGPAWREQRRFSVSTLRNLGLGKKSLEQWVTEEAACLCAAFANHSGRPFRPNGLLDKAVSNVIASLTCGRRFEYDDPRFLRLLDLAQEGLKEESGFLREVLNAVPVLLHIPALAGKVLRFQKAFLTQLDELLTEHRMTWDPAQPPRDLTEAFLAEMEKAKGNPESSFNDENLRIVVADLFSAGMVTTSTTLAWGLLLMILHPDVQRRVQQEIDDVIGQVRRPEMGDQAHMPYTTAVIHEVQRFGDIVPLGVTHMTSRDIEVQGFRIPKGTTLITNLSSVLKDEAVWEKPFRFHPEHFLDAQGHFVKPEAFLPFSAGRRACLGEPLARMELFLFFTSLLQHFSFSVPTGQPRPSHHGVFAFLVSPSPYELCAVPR
# Method: as §1, §2, §3, §4
# CYP3A4 = target: T3, CYP3A4 (Homo sapiens, UniProt P08684); assay: Cytochrome P450 inhibition assay (P450-Glo); type: in vitro ADME; conditions: 10 μM, result in words
# T3 construct: purchased Corning; host or cells: baculovirus infected insect cells (BTI-TN-5B1-4)
# T3 sequence (P08684 2-503 limits assumed): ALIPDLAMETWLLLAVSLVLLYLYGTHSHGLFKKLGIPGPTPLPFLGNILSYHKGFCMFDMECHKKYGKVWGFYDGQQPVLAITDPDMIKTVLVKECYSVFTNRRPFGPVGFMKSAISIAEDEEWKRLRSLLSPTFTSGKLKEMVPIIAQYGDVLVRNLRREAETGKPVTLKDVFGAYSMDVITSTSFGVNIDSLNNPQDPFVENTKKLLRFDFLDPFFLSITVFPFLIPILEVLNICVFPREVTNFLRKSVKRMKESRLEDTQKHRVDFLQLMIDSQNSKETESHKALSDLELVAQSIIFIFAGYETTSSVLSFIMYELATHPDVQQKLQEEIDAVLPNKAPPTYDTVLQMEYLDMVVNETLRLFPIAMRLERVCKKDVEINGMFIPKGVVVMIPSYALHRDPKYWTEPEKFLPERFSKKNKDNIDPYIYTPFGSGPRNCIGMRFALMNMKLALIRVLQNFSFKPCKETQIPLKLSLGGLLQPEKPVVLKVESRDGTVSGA
# Method: as §1, §2, §3, §4
# hERG = target: T4, hERG (Homo sapiens, UniProt Q12809); assay: hERG cardiotoxicity assay (Predictor hERG Fluorescence Polarisation); type: binding; conditions: 10 μM, result in words
# T4 construct: purchased Invitrogen
# T4 sequence (Q12809 whole entry): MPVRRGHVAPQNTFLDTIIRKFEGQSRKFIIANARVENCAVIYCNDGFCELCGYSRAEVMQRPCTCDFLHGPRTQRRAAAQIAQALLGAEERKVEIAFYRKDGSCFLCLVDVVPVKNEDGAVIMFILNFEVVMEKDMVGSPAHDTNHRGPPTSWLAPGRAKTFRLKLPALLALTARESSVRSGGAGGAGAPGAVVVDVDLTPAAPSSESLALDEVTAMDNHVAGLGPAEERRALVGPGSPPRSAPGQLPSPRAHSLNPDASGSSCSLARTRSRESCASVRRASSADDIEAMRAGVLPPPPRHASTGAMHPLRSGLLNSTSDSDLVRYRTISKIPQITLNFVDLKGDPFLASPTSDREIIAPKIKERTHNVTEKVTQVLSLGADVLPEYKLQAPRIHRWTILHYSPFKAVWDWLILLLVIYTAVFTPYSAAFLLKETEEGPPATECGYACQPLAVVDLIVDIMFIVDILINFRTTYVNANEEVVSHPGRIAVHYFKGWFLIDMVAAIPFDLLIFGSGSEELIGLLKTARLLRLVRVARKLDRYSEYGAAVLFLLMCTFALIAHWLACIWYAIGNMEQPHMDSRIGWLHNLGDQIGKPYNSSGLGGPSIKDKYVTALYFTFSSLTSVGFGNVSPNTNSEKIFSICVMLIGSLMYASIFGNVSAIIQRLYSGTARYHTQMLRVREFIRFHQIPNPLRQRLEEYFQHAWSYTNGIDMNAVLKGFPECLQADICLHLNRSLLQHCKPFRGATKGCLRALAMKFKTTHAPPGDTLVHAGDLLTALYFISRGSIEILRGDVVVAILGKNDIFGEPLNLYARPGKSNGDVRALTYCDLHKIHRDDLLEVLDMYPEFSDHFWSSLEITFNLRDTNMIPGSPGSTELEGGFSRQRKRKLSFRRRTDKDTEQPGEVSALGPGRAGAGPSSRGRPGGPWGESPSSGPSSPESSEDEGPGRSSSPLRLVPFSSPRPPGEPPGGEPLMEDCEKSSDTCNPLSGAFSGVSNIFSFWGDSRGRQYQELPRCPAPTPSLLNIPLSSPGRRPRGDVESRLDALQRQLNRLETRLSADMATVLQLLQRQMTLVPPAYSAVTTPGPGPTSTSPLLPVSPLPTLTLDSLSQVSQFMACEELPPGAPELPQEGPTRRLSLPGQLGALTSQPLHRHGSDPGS
# Method: as §1, §2
# The Invitrogen Predictor™ hERG Fluorescence Polarisation Assay was used in 384-well assay format. […] The plates were incubated for 2 h at 25 °C in a humidity-controlled incubator and the fluorescence polarisation was measured using an EnVision® multilabel 2103 reader. […] The raw data were normalised relative to the positive and negative controls yielding the % cardiotoxicity for each compound.
# rhodesain [1] = target: T5, rhodesain (Trypanosoma brucei rhodesiense, UniProt Q95PM0); assay: In vitro rhodesain enzyme assay (Cbz-Phe-Arg-AMC substrate); type: biochemical; conditions: compound at 50 μM; Cbz-Phe-Arg-AMC substrate 10, 5 and 1.25 μM; read-out: inhibition of rhodesain enzymatic activity
# T5 sequence (Q95PM0 entry or part of it): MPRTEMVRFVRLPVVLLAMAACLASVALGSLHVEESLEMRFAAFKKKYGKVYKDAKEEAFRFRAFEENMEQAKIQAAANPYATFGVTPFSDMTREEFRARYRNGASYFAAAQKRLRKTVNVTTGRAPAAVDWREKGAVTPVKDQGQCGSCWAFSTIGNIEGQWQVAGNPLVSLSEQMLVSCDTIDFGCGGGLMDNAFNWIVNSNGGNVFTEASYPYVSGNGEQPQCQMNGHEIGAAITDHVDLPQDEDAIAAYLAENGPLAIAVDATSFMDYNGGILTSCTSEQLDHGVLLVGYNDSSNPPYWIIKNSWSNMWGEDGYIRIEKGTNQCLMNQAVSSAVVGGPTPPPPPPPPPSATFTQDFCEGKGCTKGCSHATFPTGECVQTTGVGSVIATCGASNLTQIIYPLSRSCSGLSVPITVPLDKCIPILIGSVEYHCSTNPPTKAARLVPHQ
# Method: Enzyme assays with rhodesain were performed as described previously [[36], [37], [38]]. The assay buffer consisted of 50 mM sodium acetate (pH 5.5), 5 mM EDTA, 200 mM NaCl and 0.005% Brij35. The enzyme buffer consisted of 50 mM sodium acetate (pH 5.5), 5 mM EDTA, 200 mM NaCl and 2 mM DTT. The substrate Cbz-Phe-Arg-AMC (Bachem, purchased as HCl salt) was diluted from a 1 mM stock solution to reach concentrations of 10, 5 and 1.25 μM. […] Inhibition against rhodesain was measured using Cbz-Phe-Arg-AMC as the substrate, which releases AMC (7-amino-4-methylcoumarin) after amide bond cleavage by the enzyme. Proteolytic activity of the enzyme was monitored spectrophotometrically by the increase of fluorescence intensity by release of AMC (emission at 460 nm) upon hydrolysis.
# rhodesain [2] = target: T5, rhodesain; assay: STD and WaterLOGSY NMR protein-ligand interaction; type: binding; conditions: rhodesain 50 μM, compound 5 mM, 25 °C; corroborated by WaterLOGSY
# Source text: In order to support the outcome observed from docking studies, protein-ligand interactions were probed via Saturation Transfer Difference (STD) and WaterLOGSY experiments. STD is an NMR technique where the protein is selectively saturated and, if the ligand is binding to the protein in the timescale of the experiment, the saturation gets transferred to the ligand via intermolecular NOE and only then it is possible to observe an NMR signal. WaterLOGSY relies on the detection of the intermolecular NOE between water (which is selectively irradiated) and the ligand. The sign of the NOE depends on the rotational correlation time of the molecule, thus large molecules such as proteins, have an opposite NOE sign than small molecules such as the pyrimidines investigated. If the pyrimidines bind to the protein, their rotational correlation time changes and the sign of the signals in the WaterLOGSY experiment will be opposite than in the absence of a binding protein. […] The WaterLOGSY results, which as expected is generally a more sensitive technique, further corroborate our findings. […]
# All NMR studies were performed at 25 °C on a JEOL ECZ-R 600 MHz spectrometer equipped with a ROYAL room temperature probe. […] The spectra were processed and analysed using JEOL Delta software. […]
# T1 sequence (P11712 whole entry): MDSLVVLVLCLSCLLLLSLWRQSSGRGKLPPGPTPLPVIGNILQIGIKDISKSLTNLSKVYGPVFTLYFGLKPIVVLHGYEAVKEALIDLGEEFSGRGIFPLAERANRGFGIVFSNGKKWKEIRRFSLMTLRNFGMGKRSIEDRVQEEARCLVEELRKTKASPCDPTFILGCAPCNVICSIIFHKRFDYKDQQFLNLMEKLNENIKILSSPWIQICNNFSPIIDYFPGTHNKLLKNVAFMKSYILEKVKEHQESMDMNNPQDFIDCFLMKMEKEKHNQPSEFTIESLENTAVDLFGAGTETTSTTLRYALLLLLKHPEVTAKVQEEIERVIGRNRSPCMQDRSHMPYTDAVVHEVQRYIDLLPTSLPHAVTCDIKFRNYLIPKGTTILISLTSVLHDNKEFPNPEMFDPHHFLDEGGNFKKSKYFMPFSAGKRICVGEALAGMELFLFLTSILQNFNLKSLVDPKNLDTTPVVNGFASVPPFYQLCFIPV
smiles,measurement,setting,value
"COc1ccccc1-c1cc(-c2cccnc2)nc(N)n1 [Compound 13, 4-(2-Methoxyphenyl)-6-(pyridin-3-yl)pyrimidin-2-amine]",CYP2C9 inhibition,CYP2C9,some inhibition
same,CYP2D6 inhibition,CYP2D6,favourable results
same,CYP3A4 inhibition,CYP3A4,favourable results
same,hERG cardiotoxicity,hERG,no notable
same,inhibition at 50 µM,rhodesain [1],≤ 15%
same,binding to rhodesain by STD NMR,rhodesain [2],confirming binding to rhodesain
